From ChEMBL document CHEMBL1148540, “Tetrahydrobenzothiophene inhibitors of hepatitis C virus NS5B polymerase” (Bioorg Med Chem Lett, 2006)

How the values were obtained:
[1] = biological target: T1, RNA-directed RNA polymerase (Hepacivirus hominis, UniProt O39930); test: Inhibitory activity against HCV 4a NS5B full length RNA dependent RNA polymerase; parameters: species or system Hepatitis C virus subtype 4a
[2] = Permeability across Caco-2 cell membrane; format: ADME, cell-based; settings: human, read-out: permeability
[3] = biological target: T1, RNA-directed RNA polymerase; test: Inhibitory activity against delta-21 C-terminally truncated HCV 1b (BB7 isolate) RNA dependent RNA polymerase; parameters: species or system Hepatitis C virus subtype 1b

T1 sequence (O39930 whole entry): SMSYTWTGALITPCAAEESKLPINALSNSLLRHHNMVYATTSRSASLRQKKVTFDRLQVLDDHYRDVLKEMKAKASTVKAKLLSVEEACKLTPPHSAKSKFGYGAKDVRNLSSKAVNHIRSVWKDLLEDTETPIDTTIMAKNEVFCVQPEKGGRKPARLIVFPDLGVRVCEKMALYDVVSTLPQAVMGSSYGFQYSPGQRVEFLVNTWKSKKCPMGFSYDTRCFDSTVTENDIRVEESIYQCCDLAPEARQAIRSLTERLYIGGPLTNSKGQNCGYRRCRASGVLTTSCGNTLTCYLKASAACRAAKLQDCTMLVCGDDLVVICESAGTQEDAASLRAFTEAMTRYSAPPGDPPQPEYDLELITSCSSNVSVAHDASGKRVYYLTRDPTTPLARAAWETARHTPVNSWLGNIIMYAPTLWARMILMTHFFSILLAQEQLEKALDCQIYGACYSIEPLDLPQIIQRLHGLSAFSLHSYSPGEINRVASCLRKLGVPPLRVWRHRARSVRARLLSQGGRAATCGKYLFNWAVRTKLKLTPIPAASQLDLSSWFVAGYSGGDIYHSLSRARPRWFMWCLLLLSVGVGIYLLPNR

SMILES	IC50 [1] [nM]	Papp [2] [×10⁻⁶ cm/s]	IC50 [3] [nM]
CCOC(=O)c1c(NC(=O)NS(=O)(=O)c2ccc(C)cc2)sc2c1CCC(C)C2 (centres undefined)	200	–	–
CCOC(=O)c1c(NC(=O)NS(=O)(=O)c2nccn2C)sc2c1CCC(C)(C)C2	80	> 3	150
CCOC(=O)c1c(NC(=O)NS(=O)(=O)N2CCCCCC2)sc2c1CCC(C)(C)C2	500	–	1100
CCOC(=O)c1c(NC(=O)NS(C)(=O)=O)sc2c1CCCC2	3800	–	–
CCOC(=O)c1c(NC(=O)NS(=O)(=O)c2ccccc2C(F)(F)F)sc2c1CCC(C)(C)C2	50	> 3	200
CCOC(=O)c1c(NC(=O)NS(=O)(=O)N2CCCCC2)sc2c1CCC(C)(C)C2	200	–	1000
CCOC(=O)c1c(NC(=O)NS(=O)(=O)c2ccccc2C)sc2c1CCCC2	900	–	–
CCOC(=O)c1c(NC(=O)NS(=O)(=O)c2ccnn2C)sc2c1CCC(C)(C)C2	50	> 3	260
CCOC(=O)c1c(NC(=O)NS(=O)(=O)c2ncccn2)sc2c1CCC(C)(C)C2	50	> 3	300
CCOC(=O)c1c(NC(=O)NS(=O)(=O)c2ccccc2OC(F)(F)F)sc2c1CCC(C)(C)C2	150	> 3	400
CCOC(=O)c1c(NC(=O)NS(=O)(=O)c2ccc([N+](=O)[O-])cc2)sc2c1CCCC2	2800	–	–
CCOC(=O)c1c(NC(=O)NS(=O)(=O)N2CCOCC2)sc2c1CCC(C)(C)C2	300	–	2500
CCOC(=O)c1c(NC(=O)c2nccnc2C(=O)O)sc2c1CCCC2	4000	–	–
CCOC(=O)c1c(NC(=O)NS(=O)(=O)N2CCc3ccccc32)sc2c1CCC(C)(C)C2	200	–	260
CCCCS(=O)(=O)NC(=O)Nc1sc2c(c1C(=O)OCC)CCCC2	4900	–	–
CCOC(=O)c1c(NC(=O)NS(=O)(=O)c2ccc(C)cc2)sc2c1C(C)CCC2 (centres undefined)	2000	–	–
CCOC(=O)c1c(NC(=O)NS(=O)(=O)N2CCN(C)CC2)sc2c1CCC(C)(C)C2	400	–	2000

SMILES	IC50 [1] [nM]	Papp [2] [×10⁻⁶ cm/s]	IC50 [3] [nM]
CCOC(=O)c1c(NC(=O)NS(=O)(=O)c2ccc(C)cc2)sc2c1CCCC2	1000	–	–
CCOC(=O)c1c(NC(=O)NS(=O)(=O)N2CCN(C(C)=O)CC2)sc2c1CCC(C)(C)C2	300	–	600
CCOC(=O)c1c(NC(=O)NS(=O)(=O)c2cccc3ccccc23)sc2c1CCCC2	700	–	–
CCOC(=O)c1c(NC(=O)NS(=O)(=O)c2cccc(C)c2)sc2c1CCCC2	900	–	–
CCOC(=O)c1c(NC(=O)NS(=O)(=O)c2ccccc2)sc2c1CCC(C)(C)C2	90	> 3	200
CCOC(=O)c1c(NC(=O)NS(=O)(=O)c2ccc(C#N)cc2)sc2c1CCC(C)(C)C2	90	> 3	400
CCOC(=O)c1c(NC(=O)NS(=O)(=O)N2CCc3ccccc3C2)sc2c1CCC(C)(C)C2	100	–	600
CCOC(=O)c1c(NC(=O)NS(=O)(=O)N2CCCC2)sc2c1CCC(C)(C)C2	200	–	400
CCOC(=O)c1c(NC(=O)NS(=O)(=O)c2ccc(C)cc2)sc2c1CCC(C)(C)C2	90	> 3	400
CCOC(=O)c1c(NC(=O)NS(=O)(=O)c2ccc(F)cc2)sc2c1CCC(C)(C)C2	60	> 3	500
CCOC(=O)c1c(NC(=O)NS(=O)(=O)c2ccc(F)cc2)sc2c1CCCC2	1700	–	–
CCOC(=O)c1c(NC(=O)NS(=O)(=O)c2cccc(OC)c2)sc2c1CCCC2	1200	–	–
CCOC(=O)c1c(NC(=O)NS(=O)(=O)c2ccccn2)sc2c1CCC(C)(C)C2	40	> 3	150
CCOC(=O)c1c(NC(=O)NS(=O)(=O)c2ccc(C)cc2)sc2c1CC(C)CC2 (centres undefined)	500	–	–
CCOC(=O)c1c(NC(=O)NS(=O)(=O)c2ccc(C)cn2)sc2c1CCC(C)(C)C2	50	> 3	200
CCOC(=O)c1c(NC(=O)NS(=O)(=O)c2ccccc2)sc2c1CCCC2	700	–	–
CCOC(=O)c1c(NC(=O)NS(=O)(=O)c2ccc(Cl)cc2)sc2c1CCCC2	1000	–	–
